Assay results taken from patent EP0783319B1, “MURAMYL PEPTIDE COMPOSITIONS FOR INHIBITING HIV REPLICATION” (VACSYN S.A., priority 1994, dated 1996).

Legend:
[1] = system: macrophages de cobayes; settings: guinea pig macrophages; cited from earlier work
[2] = system: HIV; settings: in vitro, 1000 µg/ml; cited from earlier work
[3] = parameters: species or system homme; settings: in vivo
Source text: Des composés préférés pour l'utilisation selon l'invention sont le Murabutide (Nac-Mur-L-Ala-DGln OnC4H9) et le Muramétide (Nac-Mur-L-Ala-DGln OMe).

[4] = system: macrophages; assay: Macrophage proliferation in cultured donor monocytes (3H-thymidine incorporation); assay type: cell-based, humains; settings: for inhibition de la prolifération des macrophages stimulées par la combinaison IL-3/GM-CSF / inhibition de la prolifération des macrophages stimulées par l'IL-3: 1 µg/ml, compound added one day before 3H-thymidine, 5-day culture; for inhibition de la prolifération des macrophages stimulées par la combinaison IL-3/GM-CSF: rh IL-3 + rh GM-CSF stimulated; for inhibition de la prolifération des macrophages stimulées par l'IL-3: rh IL-3 stimulated; for inhibition de la prolifération spontanée: no stimulation
Source text: Pour cela, des monocytes prélevés chez un donneur sont mis en culture pendant 5 jours soit a) sans stimulation (afin d'évaluer leur niveau de prolifération spontanée) soit b) en présence d'interleukine 3 recombinante humaine (rh IL-3) soit c) en présence et de rh IL-3 et de rh GM-CSF "granulocyte-macrophage colony stimulating factor" recombinant humain. […] Les composés de l'invention sont ajoutés au milieu de culture un jour avant l'addition de thymidine tritiée (^3H-thymidine). Les cellules en voie de division incorporent cette thymidine. Les cellules (qui se sont différenciées en macrophages pendant la durée de la culture) sont recueillies et lavées, et on évalue le niveau de prolifération en mesurant dans un compteur beta, la quantité de ^3H incorporée suivant des méthodes classiques telles que décrites dans Blood, Vol. 76, pages 1490-1493, 1990.

[5] = system: VIH (HTLV III Ba-L); assay: HIV replication in primary human monocyte cultures (viral protein P24 in supernatants, day 7); assay type: cell-based; settings: P24 at day 7
Source text: L'exemple 2 démontre l'effet du Murabutide et du Muramétide sur le niveau de réplication du VIH dans des cultures primaires de monocytes humains prélevés sur des volontaires sains. Des cultures monocytaires ont été infectées au jour 0 par une source VIH (HTLV III Ba-L) qui présente un tropisme pour les monocytes. Certaines cultures furent traitées par différentes concentrations des composés soit 1 jour avant, soit le même jour, soit 1 jour après l'inoculation par le VIH. La réplication du virus a été évaluée au jour 7 par la mesure de la quantité de protéine virale P24 dans les surnageants comme décrite dans Blood, Vol.76, page 1490-1493, 1990.

| Structure (SMILES) | inhibition de la prolifération des macrophages [1] | inhibition de la réplication de HIV [2] | effets secondaires [3] | tolérance [3] | inhibition de la prolifération des macrophages stimulées par la combinaison IL-3/GM-CSF [4] | inhibition de la prolifération des macrophages stimulées par l'IL-3 [4] | inhibition de la prolifération spontanée ([4]; 10 µg/ml) | inhibition de la réplication virale ([5]; 10 à 50 µg/ml, treatment on day -1, day 0 or day +1 relative to infection) | inhibition de la prolifération spontanée ([4]; 50 µg/ml) | inhibition at 50 µg/mL ([5]; Human immunodeficiency virus 1, BAL, Monocyte, 168 h, 50 µg/ml, whatever the time of treatment (day -1, 0 or +1), read-out: suppression de la réplication virale) [%] | suppression de la réplication virale ([5]; different concentrations, treatment day -1, 0 or +1) |
| --- | --- | --- | --- | --- | --- | --- | --- | --- | --- | --- | --- |
| CC(=O)N[C@H]1C(O)O[C@H](CO)[C@@H](O)[C@@H]1O[C@H](C)C(=O)N[C@@H](C)C(=O)N[C@H](CCC(=O)O)C(N)=O (stereo partly drawn) [MDP, N-acétyl-muramyl-L-alanyl-D- Isoglutamine] | inhiber la prolifération des macrophages de cobayes | inhiber partiellement la réplication de HIV |  |  |  |  |  |  |  |  |  |
| CCCCOC(=O)[C@@H](CCC(N)=O)NC(=O)[C@H](C)NC(=O)[C@@H](C)O[C@H]1[C@H](O)[C@@H](CO)OC(O)[C@@H]1NC(C)=O (stereo partly drawn) [Murabutide, Nac-Mur-L-Ala-DGln OnC4H9] |  |  | dénuées d'effets secondaires | très bonne tolérance | inhiber la prolifération des macrophages | inhiber la prolifération des macrophages | inhibition de la prolifération spontanée a été observé | inhibe complètement la réplication virale |  |  |  |
| COC(=O)[C@@H](CCC(N)=O)NC(=O)[C@H](C)NC(=O)[C@@H](C)O[C@H]1[C@H](O)[C@@H](CO)OC(O)[C@@H]1NC(C)=O (stereo partly drawn) [Muramétide, Nac-Mur-L-Ala-DGln OMe] |  |  | dénuées d'effets secondaires | très bonne tolérance | inhiber la prolifération des macrophages | inhiber la prolifération des macrophages | inhibition de la prolifération spontanée a été observé |  | inhibition de la prolifération spontanée a été observé | 100 | suppression hautement significative de la réplication virale |
